Laboratory results: ChEMBL document CHEMBL3352200, “Thio-sugar motif of functional CARB-pharmacophore for antineoplastic activity. Part 2” (Bioorg Med Chem Lett, 2014)

Experiments:
A549 [1] = experiment: Induction of apoptosis in human A549 cells assessed as apoptotic cells at 275 uM after 4 hrs by FITC Annexin-V/propidium iodide staining-based flow cytometry (reference value: 15.60%); format: functional
A549 [2] = experiment: Induction of apoptosis in human A549 cells assessed as viable cells at 275 uM after 4 hrs by FITC Annexin-V/propidium iodide staining-based flow cytometry (reference value: 84.40%); format: functional; settings: A549, 4 h, read-out: Activity
MCF7 [3] = experiment: Induction of apoptosis in human MCF7 cells assessed as apoptotic cells at 137 uM after 4 hrs by FITC Annexin-V/propidium iodide staining-based flow cytometry (reference value: 29.60%); format: functional
LoVo [4] = experiment: Cytotoxicity against human LoVo cells after 14 hrs by CCK-8 assay; format: functional, cell-based
HeLa [5] = experiment: Induction of apoptosis in human HeLa cells assessed as apoptotic cells at 17 uM after 4 hrs by FITC Annexin-V/propidium iodide staining-based flow cytometry (reference value: 13.00%); format: functional
[6] = Cytotoxicity against human PNT2 cells at 8.6 to 2200 uM after 14 hrs by CCK-8 assay; format: cell-based; settings: pnt2, 14 h
HeLa [7] = experiment: Induction of apoptosis in human HeLa cells assessed as viable cells at 137 uM after 4 hrs by FITC Annexin-V/propidium iodide staining-based flow cytometry (reference value: 87.00%); format: functional; settings: read-out: Activity
A549 [8] = experiment: Cytotoxicity against human A549 cells after 14 hrs by CCK-8 assay; format: functional, cell-based; settings: A549, 14 h
LoVo [9] = experiment: Induction of apoptosis in human LoVo cells assessed as apoptotic cells at 550 uM after 4 hrs by FITC Annexin-V/propidium iodide staining-based flow cytometry (reference value: 20.50%); format: functional
MCF7 [10] = experiment: Cytotoxicity against human MCF7 cells after 14 hrs by CCK-8 assay; format: functional, cell-based; settings: MCF7, 14 h
A549 [11] = experiment: Induction of apoptosis in human A549 cells assessed as viable cells at 34 uM after 4 hrs by FITC Annexin-V/propidium iodide staining-based flow cytometry (reference value: 84.40%); format: functional; settings: A549, 4 h, read-out: Activity
HeLa [12] = experiment: Induction of apoptosis in human HeLa cells assessed as apoptotic cells at 137 uM after 4 hrs by FITC Annexin-V/propidium iodide staining-based flow cytometry (reference value: 13.00%); format: functional
MCF7 [13] = experiment: Induction of apoptosis in human MCF7 cells assessed as viable cells at 17 uM after 4 hrs by FITC Annexin-V/propidium iodide staining-based flow cytometry (reference value: 70.40%); format: functional; settings: MCF7, 4 h, read-out: Activity
MCF7 [14] = experiment: Induction of apoptosis in human MCF7 cells assessed as apoptotic cells at 17 uM after 4 hrs by FITC Annexin-V/propidium iodide staining-based flow cytometry (reference value: 29.60%); format: functional
LoVo [15] = experiment: Induction of apoptosis in human LoVo cells assessed as apoptotic cells at 69 uM after 4 hrs by FITC Annexin-V/propidium iodide staining-based flow cytometry (reference value: 20.50%); format: functional
A549 [16] = experiment: Induction of apoptosis in human A549 cells assessed as apoptotic cells at 34 uM after 4 hrs by FITC Annexin-V/propidium iodide staining-based flow cytometry (reference value: 15.60%); format: functional
HeLa [17] = experiment: Induction of apoptosis in human HeLa cells assessed as viable cells at 17 uM after 4 hrs by FITC Annexin-V/propidium iodide staining-based flow cytometry (reference value: 87.00%); format: functional; settings: read-out: Activity
LoVo [18] = experiment: Induction of apoptosis in human LoVo cells assessed as viable cells at 550 uM after 4 hrs by FITC Annexin-V/propidium iodide staining-based flow cytometry (reference value: 79.50%); format: functional; settings: read-out: Activity
[19] = Lipophilicity, log P of the compound; format: physicochemical; settings: octanol/water
LoVo [20] = experiment: Induction of apoptosis in human LoVo cells assessed as viable cells at 69 uM after 4 hrs by FITC Annexin-V/propidium iodide staining-based flow cytometry (reference value: 79.50%); format: functional; settings: read-out: Activity
HeLa [21] = experiment: Cytotoxicity against human HeLa cells after 14 hrs by CCK-8 assay; format: functional, cell-based
MCF7 [22] = experiment: Induction of apoptosis in human MCF7 cells assessed as viable cells at 137 uM after 4 hrs by FITC Annexin-V/propidium iodide staining-based flow cytometry (reference value: 70.40%); format: functional; settings: MCF7, 4 h, read-out: Activity
MCF7 [23] = experiment: Induction of apoptosis in human MCF7 cells assessed as viable cells at 34 uM after 4 hrs by FITC Annexin-V/propidium iodide staining-based flow cytometry (reference value: 70.40%); format: functional; settings: MCF7, 4 h, read-out: Activity
MCF7 [24] = experiment: Induction of apoptosis in human MCF7 cells assessed as viable cells at 4.3 uM after 4 hrs by FITC Annexin-V/propidium iodide staining-based flow cytometry (reference value: 70.40%); format: functional; settings: MCF7, 4 h, read-out: Activity
LoVo [25] = experiment: Induction of apoptosis in human LoVo cells assessed as apoptotic cells at 17 uM after 4 hrs by FITC Annexin-V/propidium iodide staining-based flow cytometry (reference value: 20.50%); format: functional
HeLa [26] = experiment: Induction of apoptosis in human HeLa cells assessed as apoptotic cells at 69 uM after 4 hrs by FITC Annexin-V/propidium iodide staining-based flow cytometry (reference value: 13.00%); format: functional
HeLa [27] = experiment: Induction of apoptosis in human HeLa cells assessed as viable cells at 8.6 uM after 4 hrs by FITC Annexin-V/propidium iodide staining-based flow cytometry (reference value: 87.00%); format: functional; settings: read-out: Activity
A549 [28] = experiment: Induction of apoptosis in human A549 cells assessed as viable cells at 69 uM after 4 hrs by FITC Annexin-V/propidium iodide staining-based flow cytometry (reference value: 84.40%); format: functional; settings: A549, 4 h, read-out: Activity
A549 [29] = experiment: Induction of apoptosis in human A549 cells assessed as viable cells at 8.6 uM after 4 hrs by FITC Annexin-V/propidium iodide staining-based flow cytometry (reference value: 84.40%); format: functional; settings: A549, 4 h, read-out: Activity
LoVo [30] = experiment: Induction of apoptosis in human LoVo cells assessed as viable cells at 137 uM after 4 hrs by FITC Annexin-V/propidium iodide staining-based flow cytometry (reference value: 79.50%); format: functional; settings: read-out: Activity
A549 [31] = experiment: Induction of apoptosis in human A549 cells assessed as apoptotic cells at 69 uM after 4 hrs by FITC Annexin-V/propidium iodide staining-based flow cytometry (reference value: 15.60%); format: functional
LoVo [32] = experiment: Induction of apoptosis in human LoVo cells assessed as viable cells at 17 uM after 4 hrs by FITC Annexin-V/propidium iodide staining-based flow cytometry (reference value: 79.50%); format: functional; settings: read-out: Activity
HeLa [33] = experiment: Induction of apoptosis in human HeLa cells assessed as apoptotic cells at 8.6 uM after 4 hrs by FITC Annexin-V/propidium iodide staining-based flow cytometry (reference value: 13.00%); format: functional
A549 [34] = experiment: Induction of apoptosis in human A549 cells assessed as apoptotic cells at 8.6 uM after 4 hrs by FITC Annexin-V/propidium iodide staining-based flow cytometry (reference value: 15.60%); format: functional
MCF7 [35] = experiment: Induction of apoptosis in human MCF7 cells assessed as apoptotic cells at 34 uM after 4 hrs by FITC Annexin-V/propidium iodide staining-based flow cytometry (reference value: 29.60%); format: functional
HeLa [36] = experiment: Induction of apoptosis in human HeLa cells assessed as viable cells at 69 uM after 4 hrs by FITC Annexin-V/propidium iodide staining-based flow cytometry (reference value: 87.00%); format: functional; settings: read-out: Activity
MCF7 [37] = experiment: Induction of apoptosis in human MCF7 cells assessed as apoptotic cells at 4.3 uM after 4 hrs by FITC Annexin-V/propidium iodide staining-based flow cytometry (reference value: 29.60%); format: functional
LoVo [38] = experiment: Induction of apoptosis in human LoVo cells assessed as apoptotic cells at 137 uM after 4 hrs by FITC Annexin-V/propidium iodide staining-based flow cytometry (reference value: 20.50%); format: functional

## O=C(O)c1ccccc1S[C@H]1CC(=O)[C@@H]2OC[C@H]1O2
A549 [1]
  Activity: 37.84%
A549 [2]
  viability at 275 µM: 62.2%
MCF7 [3]
  Activity: 62.5%
LoVo [4]
  IC50: 641 µM
HeLa [5]
  Activity: 24.5%
[6]
  Activity: 10%
HeLa [7]
  viability at 137 µM: 74.2%
A549 [8]
  IC50: 311 µM
LoVo [9]
  Activity: 62.2%
MCF7 [10]
  IC50: 218 µM
A549 [11]
  viability at 34 µM: 72.6%
HeLa [12]
  Activity: 25.8%
MCF7 [13]
  viability at 17 µM: 60.9%
MCF7 [14]
  Activity: 39.1%
LoVo [15]
  Activity: 29.1%
A549 [16]
  Activity: 27.4%
HeLa [17]
  viability at 17 µM: 75.5%
LoVo [18]
  viability at 550 µM: 37.8%
[19]
  logP: 1.28
LoVo [20]
  viability at 69 µM: 70.9%
HeLa [21]
  IC50: 434 µM
MCF7 [22]
  viability at 137 µM: 37.5%

## CC(=O)OC[C@H]1O[C@@H](S[C@H]2CC(=O)[C@@H]3OC[C@H]2O3)[C@H](OC(C)=O)[C@@H](OC(C)=O)[C@@H]1OC(C)=O
MCF7 [23]
  viability at 34 µM: 68.8%
MCF7 [24]
  viability at 4.3 µM: 63.1%
LoVo [4]
  IC50: 166 µM
LoVo [25]
  Activity: 27.55%
HeLa [26]
  Activity: 36.9%
HeLa [27]
  viability at 8.6 µM: 80%
A549 [28]
  viability at 69 µM: 75.8%
[6]
  Activity: 10%
A549 [29]
  viability at 8.6 µM: 76.4%
A549 [8]
  IC50: 119 µM
MCF7 [10]
  IC50: 47.1 µM
LoVo [30]
  viability at 137 µM: 69.7%
A549 [31]
  Activity: 24.2%
LoVo [32]
  viability at 17 µM: 72.5%
HeLa [33]
  Activity: 20%
A549 [34]
  Activity: 23.6%
MCF7 [35]
  Activity: 31.25%
HeLa [36]
  viability at 69 µM: 63.1%
[19]
  logP: -1.13
MCF7 [37]
  Activity: 36.9%
LoVo [38]
  Activity: 30.3%
HeLa [21]
  IC50: 91.4 µM
